Results as given in ChEMBL document CHEMBL4507284, “Data for DCP probe BI-1230” (2021).
pKi: −log10 of the molar value.

Key:
Caspase-7 (Homo sapiens) = Caspase-7 (Homo sapiens) (UniProt P55210); assay: Caspase-7 (h) Eurofins-Cerep enzyme and uptake assay; conditions: Compound concentration 10.0 uM
[1] = target: Alpha-2B adrenergic receptor (Homo sapiens, UniProt P18089); assay: GPCRScan assay: inhibition of Alpha2B; parameters: radioligand conc. used [nm] 1.5 – 2.0, parental cells HEKT
[2] = target: Cathepsin G (Homo sapiens) (UniProt P08311); assay: Cathepsin G (h) Eurofins-Cerep enzyme and uptake assay; conditions: Compound concentration 10.0 uM
[3] = target: Beta-secretase 1 (Homo sapiens) (UniProt P56817); assay: BACE-1 (h) (β-secretase) Eurofins-Cerep enzyme and uptake assay; conditions: Compound concentration 10.0 uM
[4] = target: Alpha-2C adrenergic receptor (Homo sapiens, UniProt P18825); assay: GPCRScan assay: inhibition of Alpha2C; parameters: radioligand conc. used [nm] 0.5 – 1.0, parental cells stable MDCK
[5] = target: Dipeptidyl peptidase 4 (Homo sapiens) (UniProt P27487); assay: Dipeptidyl peptidase IV (h) (DPP-IV) Eurofins-Cerep enzyme and uptake assay; conditions: Compound concentration 10.0 uM
[6] = target: Macrophage metalloelastase (Homo sapiens) (UniProt P39900); assay: MMP-12 (h) Eurofins-Cerep enzyme and uptake assay; conditions: Compound concentration 10.0 uM
[7] = target: Collagenase 3 (Homo sapiens) (UniProt P45452); assay: MMP-13 (h) Eurofins-Cerep enzyme and uptake assay; conditions: Compound concentration 10.0 uM
[8] = target: Prothrombin (Homo sapiens) (UniProt P00734); assay: Thrombin(h) Eurofins-Cerep enzyme and uptake assay; conditions: Compound concentration 10.0 uM
[9] = target: Matrix metalloproteinase-14 (Homo sapiens) (UniProt P50281); assay: MT1-MMP (h) (MMP-14) Eurofins-Cerep enzyme and uptake assay; conditions: Compound concentration 10.0 uM
[10] = target: Histamine H3 receptor (Homo sapiens) (UniProt Q9Y5N1); conditions: Compound concentration 10.0 uM
[11] = target: 5-hydroxytryptamine receptor 2C (Homo sapiens) (UniProt P28335); conditions: Compound concentration 10.0 uM
5-hydroxytryptamine receptor 2C (Homo sapiens), sequence (P28335 whole entry): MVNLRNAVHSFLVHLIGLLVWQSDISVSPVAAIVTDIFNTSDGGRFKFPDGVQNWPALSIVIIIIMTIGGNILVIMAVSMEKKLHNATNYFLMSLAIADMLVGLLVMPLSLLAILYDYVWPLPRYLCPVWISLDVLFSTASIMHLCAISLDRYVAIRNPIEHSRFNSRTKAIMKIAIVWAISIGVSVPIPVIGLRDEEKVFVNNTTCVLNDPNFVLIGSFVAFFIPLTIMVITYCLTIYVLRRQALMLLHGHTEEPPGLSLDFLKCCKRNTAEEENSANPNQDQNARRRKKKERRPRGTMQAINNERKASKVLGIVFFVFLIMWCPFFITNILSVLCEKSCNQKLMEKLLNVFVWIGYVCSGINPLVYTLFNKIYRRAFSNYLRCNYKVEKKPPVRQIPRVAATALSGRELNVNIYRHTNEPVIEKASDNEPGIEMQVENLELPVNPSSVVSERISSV

Alpha-2C adrenergic receptor, sequence (P18825 whole entry): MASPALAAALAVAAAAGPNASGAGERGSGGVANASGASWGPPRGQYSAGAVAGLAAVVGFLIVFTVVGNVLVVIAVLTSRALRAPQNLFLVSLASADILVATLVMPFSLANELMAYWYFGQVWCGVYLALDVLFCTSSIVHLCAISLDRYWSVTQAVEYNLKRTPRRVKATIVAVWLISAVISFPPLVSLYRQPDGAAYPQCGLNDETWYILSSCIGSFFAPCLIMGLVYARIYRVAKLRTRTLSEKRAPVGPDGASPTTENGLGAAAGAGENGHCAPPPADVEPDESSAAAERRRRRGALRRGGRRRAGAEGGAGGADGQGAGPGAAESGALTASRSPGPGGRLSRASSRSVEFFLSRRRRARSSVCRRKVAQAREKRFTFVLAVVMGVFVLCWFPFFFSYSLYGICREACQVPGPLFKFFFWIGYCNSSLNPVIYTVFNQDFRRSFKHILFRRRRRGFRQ
Cathepsin G (Homo sapiens), sequence (P08311 whole entry): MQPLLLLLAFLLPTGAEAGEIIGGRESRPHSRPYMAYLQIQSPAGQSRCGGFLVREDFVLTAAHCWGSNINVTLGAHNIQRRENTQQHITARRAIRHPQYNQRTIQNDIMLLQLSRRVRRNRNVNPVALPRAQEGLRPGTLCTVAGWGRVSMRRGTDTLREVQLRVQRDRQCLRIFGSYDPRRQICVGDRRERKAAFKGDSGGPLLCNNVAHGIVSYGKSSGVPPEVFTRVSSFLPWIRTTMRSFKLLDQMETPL
Caspase-7 (Homo sapiens), sequence (P55210 24-198 limits assumed): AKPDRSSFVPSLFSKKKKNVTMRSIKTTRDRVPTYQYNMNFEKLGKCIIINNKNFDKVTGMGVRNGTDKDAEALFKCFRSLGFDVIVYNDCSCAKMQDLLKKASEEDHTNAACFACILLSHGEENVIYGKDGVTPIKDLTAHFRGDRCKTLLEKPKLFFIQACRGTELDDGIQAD
Caspase-7 (Homo sapiens), sequence (P55210 207-303 limits assumed): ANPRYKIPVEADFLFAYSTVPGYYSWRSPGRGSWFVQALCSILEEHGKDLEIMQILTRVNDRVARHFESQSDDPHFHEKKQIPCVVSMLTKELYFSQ
Beta-secretase 1 (Homo sapiens), sequence (P56817 whole entry): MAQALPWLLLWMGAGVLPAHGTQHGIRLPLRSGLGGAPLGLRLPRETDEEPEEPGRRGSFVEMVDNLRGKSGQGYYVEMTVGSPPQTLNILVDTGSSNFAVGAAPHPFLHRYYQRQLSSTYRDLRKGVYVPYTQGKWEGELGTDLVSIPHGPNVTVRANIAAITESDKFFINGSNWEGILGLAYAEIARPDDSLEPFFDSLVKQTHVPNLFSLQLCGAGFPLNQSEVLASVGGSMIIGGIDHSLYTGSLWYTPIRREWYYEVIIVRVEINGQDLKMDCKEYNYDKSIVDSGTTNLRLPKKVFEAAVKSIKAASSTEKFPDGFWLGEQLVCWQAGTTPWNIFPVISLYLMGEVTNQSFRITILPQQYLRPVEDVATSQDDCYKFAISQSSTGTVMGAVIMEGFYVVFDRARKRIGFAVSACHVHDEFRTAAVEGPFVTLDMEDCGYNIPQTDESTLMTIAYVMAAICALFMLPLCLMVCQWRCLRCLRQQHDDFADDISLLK
Histamine H3 receptor (Homo sapiens), sequence (Q9Y5N1 whole entry): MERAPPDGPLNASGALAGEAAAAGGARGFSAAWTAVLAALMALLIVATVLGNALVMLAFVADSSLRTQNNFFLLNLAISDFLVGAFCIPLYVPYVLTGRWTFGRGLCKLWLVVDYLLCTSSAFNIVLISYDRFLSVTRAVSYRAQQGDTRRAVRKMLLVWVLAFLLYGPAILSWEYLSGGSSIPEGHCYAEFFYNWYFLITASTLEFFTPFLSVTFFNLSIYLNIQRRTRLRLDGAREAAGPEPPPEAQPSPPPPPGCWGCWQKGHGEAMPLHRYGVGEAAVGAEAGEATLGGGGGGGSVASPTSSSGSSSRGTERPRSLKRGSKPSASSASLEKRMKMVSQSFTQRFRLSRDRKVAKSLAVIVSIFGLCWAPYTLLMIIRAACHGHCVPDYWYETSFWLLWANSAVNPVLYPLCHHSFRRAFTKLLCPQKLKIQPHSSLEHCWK
Macrophage metalloelastase (Homo sapiens), sequence (P39900 106-470 limits assumed): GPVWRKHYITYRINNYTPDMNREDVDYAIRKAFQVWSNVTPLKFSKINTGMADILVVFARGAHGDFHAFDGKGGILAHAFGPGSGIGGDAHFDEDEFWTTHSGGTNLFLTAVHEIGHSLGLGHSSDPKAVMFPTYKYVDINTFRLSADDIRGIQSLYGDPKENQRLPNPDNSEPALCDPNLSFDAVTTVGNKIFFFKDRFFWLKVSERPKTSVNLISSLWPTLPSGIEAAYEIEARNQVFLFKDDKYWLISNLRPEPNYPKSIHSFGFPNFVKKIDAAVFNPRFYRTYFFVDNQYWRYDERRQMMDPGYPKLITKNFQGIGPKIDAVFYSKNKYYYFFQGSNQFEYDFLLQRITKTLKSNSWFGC
Dipeptidyl peptidase 4 (Homo sapiens), sequence (P27487 whole entry, looked up): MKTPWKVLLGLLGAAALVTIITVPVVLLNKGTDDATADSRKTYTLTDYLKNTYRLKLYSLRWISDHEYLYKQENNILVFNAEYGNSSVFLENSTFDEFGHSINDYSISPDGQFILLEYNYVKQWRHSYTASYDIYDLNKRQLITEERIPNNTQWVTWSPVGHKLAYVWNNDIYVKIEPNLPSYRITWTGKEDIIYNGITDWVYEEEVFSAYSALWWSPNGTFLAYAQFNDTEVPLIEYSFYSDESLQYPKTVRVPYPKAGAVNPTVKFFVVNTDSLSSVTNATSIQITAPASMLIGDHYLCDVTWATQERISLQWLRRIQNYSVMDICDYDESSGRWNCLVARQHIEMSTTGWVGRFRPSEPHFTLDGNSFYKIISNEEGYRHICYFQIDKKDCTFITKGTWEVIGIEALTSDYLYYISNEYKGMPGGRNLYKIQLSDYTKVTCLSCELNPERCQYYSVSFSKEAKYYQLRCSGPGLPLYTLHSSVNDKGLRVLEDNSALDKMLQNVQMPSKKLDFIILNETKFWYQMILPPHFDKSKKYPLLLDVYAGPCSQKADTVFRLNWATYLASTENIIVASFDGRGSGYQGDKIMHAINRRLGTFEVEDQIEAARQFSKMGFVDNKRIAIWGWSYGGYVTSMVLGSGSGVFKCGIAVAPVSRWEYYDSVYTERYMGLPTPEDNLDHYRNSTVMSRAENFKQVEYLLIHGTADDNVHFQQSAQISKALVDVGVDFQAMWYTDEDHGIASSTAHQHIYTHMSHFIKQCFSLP
Alpha-2B adrenergic receptor, sequence (P18089 whole entry): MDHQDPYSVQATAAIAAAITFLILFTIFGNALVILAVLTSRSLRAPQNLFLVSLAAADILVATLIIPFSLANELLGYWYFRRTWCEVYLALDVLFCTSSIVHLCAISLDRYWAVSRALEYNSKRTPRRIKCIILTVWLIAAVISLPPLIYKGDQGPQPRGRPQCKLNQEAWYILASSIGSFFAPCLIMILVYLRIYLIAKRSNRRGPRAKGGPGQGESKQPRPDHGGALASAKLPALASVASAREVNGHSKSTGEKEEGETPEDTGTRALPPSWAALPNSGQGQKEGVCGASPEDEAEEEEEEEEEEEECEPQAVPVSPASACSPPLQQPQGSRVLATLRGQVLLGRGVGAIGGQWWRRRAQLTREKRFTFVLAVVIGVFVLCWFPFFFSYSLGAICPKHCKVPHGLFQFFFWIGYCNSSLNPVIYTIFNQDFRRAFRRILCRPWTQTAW

Work on `COc1ccc2c(O[C@@H]3C[C@H]4C(=O)N[C@]5(C(=O)O)CC5/C=C\CCCCC[C@H](NC(=O)OC5CCCC5)C(=O)N4C3)cc(-c3csc(NC(=O)C(C)C)n3)nc2c1C` (stereo partly drawn) [BI 1230] yielded a % Inhibition of Control Values (Caspase-7 (Homo sapiens)) of 40.6%, a pKi [1] of 5.35 and a % Inhibition of Control Values [2] of 63%. For the same molecule, the % Inhibition of Control Values [3] was 90.6%, the pKi ([4]; read-out: Ki) was 5.48 and the Ki ([4]; read-out: pKi (converted)) was 3.24 µM. The % Inhibition of Control Values [5] was 4%, the % Inhibition of Control Values [6] was 73.8% and the % Inhibition of Control Values [7] was 281%. It also gave a % Inhibition of Control Values [8] of 3.5% and a % Inhibition of Control Values [9] of 59.2%.

`O=C(N[C@H]1CCCCC/C=C\C2C[C@@]2(C(=O)O)NC(=O)[C@@H]2C[C@@H](Oc3ccncc3)CN2C1=O)OC1CCCC1` (stereo partly drawn) [BI 1675] was tested, and the inhibition [10] was 2.64% and the inhibition [11] was 7.99%.
